# Test results: patent US4277465A, “Adjuvant for promoting absorption of therapeutically active substances through the digestive tract” (Kyoto Yakuhin Kogyo Kabushiki Kaisha, priority 1978, dated 1981)
# “And” between values parts separate entries of the source, which are not always exact repeats. Equal values may be shown once.
# What was measured:
# [1] = Stability in aqueous solution (half-life of enamine derivatives); assay type: physicochemical; settings: pH 7.4 phosphate buffer, μ 0.15, 25° C., UV absorption spectrometry; "stable" = enamine structure retained even after 6 hours
# Procedure: To examine the stability in water of the enamine derivatives (I) obtained above, some representative compounds were selected and their half-lives [t 0.5 (min.)] in pH 7.4 phosphate buffer (μ: 0.15, temp.: 25° C.) were determined by ultraviolet absorption spectrometry. In the Table, "stable" means that the enamine structure was retained even after 6 hours.
# [2] = Rectal ointment of CET-Na with enamine derivative, blood concentration; assay type: in vivo, rabbit; settings: for AUC / Peak blood concentration: CET, rectal ointment CET.Na 20%, enamine derivative 10%, dose 50 mg CET.Na/kg
# Procedure: Cephalothin sodium (briefly CET-Na), a drug which is sparingly absorbed from the rectum, was selected for a test. Thus, CET-Na was dispersed in liquid paraffin-white vaseline base to prepare rectal ointment. The ointment was administered to rabbits by the rectal route. […] The blood concentration was measured in conformity with the biological assay method in the Antibiotic Standard of Japan. […]
# [3] = Rectal ointment of CEX.H2O with enamine derivative, blood concentration; assay type: in vivo, rabbit; settings: rectal ointment CEX.H2O 20%, enamine derivative 10%, dose 50 mg CEX.H2O/kg
# Procedure: (§1) AB-PC and cephalexin (briefly, CEX), both of which are sparingly absorbed from the rectum, are also tested. Thus, enamine derivatives (I) and these antibiotics were used to prepare rectal ointments in accordance with established practice. The ointments were administered to rabbits to investigate the peak blood concentrations (μg/ml) and AUC (μg.min./ml).
# Dose: 50 mg CEX . H2 O/kg
# [4] = Rectal ointment of AB-PC.Na with enamine derivative, blood concentration; assay type: in vivo, rabbit; settings: rectal ointment AB-PC.Na 10%, enamine derivative 10%, dose 15 mg AB-PC.Na/kg
# Procedure: as §1
# Dose: 15mg AB-PC . Na/kg
# Compounds 3, 5, 13 and 14 were used as said enamine derivatives (I) in Recipes 4, 5, 6 and 7, respectively.
# [5] = Rectal suppositories of CET-Na with enamine derivative, concentration in blood; assay type: in vivo; settings: dog
# Procedure: These suppositories were rectally administered to dogs and the absorbabilities of the active components were investigated by measuring the blood concentrations.
# (§2) The blood concentrations were measured in conformity with the biological assay method in the Antibiotic Standard of Japan. The cup method was employed with Sarcina lutea for penicillins and Bacillus subtilis for cephalosporins.
# [6] = Rectal suppositories of AB-PC-Na with enamine derivative, concentration in blood; assay type: in vivo; settings: AB-PC-Na 75mg, dog
# Procedure: as §2, with “These suppositories were rectally administered to dogs and the absorbabilities of the active components were investigated by measuring the blood concentrations. The blood” for “The blood”
# [7] = Rectal inulin dosage form with adjuvant, urinary recovery of inulin; assay type: in vivo, dog; settings: in Witepsol H-15, level of addition of enamine derivative 5%, Lunt method
# Procedure: (§3) The following dosage forms (dispersed in Witepsol H-15®) were rectally administered to dogs and humans to measure the urinary recovery rates of inulin. […] The test was carried out by the Lunt method.
# [8] = Rectal insulin suppository with Compound 3, blood glucose concentration (glucoseoxidase method); assay type: in vivo, rabbit; settings: 3 I.U. insulin per animal + Compound 3 0.05 g in Witepsol H-15
# Procedure: The test was conducted by the glucoseoxidase method. […] The largest depression of blood glucose from the pre-medication level was expressed in % response.
# [9] = Rectal inulin dosage form with adjuvant, urinary recovery of inulin; assay type: in vivo, human; settings: Lunt method
# Procedure: as §3
# [10] = Rectal inulin suppository with adjuvant, urinary recovery of inulin; assay type: in vivo, rabbit
# Procedure: The above components were used to prepare a suppository in accordance with established pharmaceutical practice. The suppository was rectally administered to rabbits (body weights 2.0-2.5 kg) and the blood concentrations were determined.
# The results, shown in FIG. 7, indicates the versatility of enamine derivative (I). The amount of inulin excreted in the urine was 18% of the dose administered.
# as §3
# [11] = Oral capsule of AB-PC sodium with adjuvant, blood concentration of AB-PC; assay type: in vivo; settings: AB-PC sodium 15 mg/kg + Compound 3 10 mg/kg, one value per rabbit, sodium salt
# Procedure: Ampicillin (briefly, AB-PC) sodium
# Capsules each containing the above indicated amounts of components were prepared by the conventional procedure and administrered to 3 rabbits. Immediately thereafter, each animal was given 20 ml of water and the concentration of AB-PC in the blood was measured by the biological assay method. In the figure, white circles represent AB-PC alone and black circles represent the capsule according to this invention.
# The blood concentrations were measured in conformity with the Antibiotic Standard of Japan. The cup method was employed with Sarcina lutea.
# [12] = Rectal insulin suppositories (Recipes 35-41), glucose response; assay type: in vivo; settings: rabbit 2.5-3kg; rectal suppository 6 I.U. insulin; enamine derivative 0.025g (5%)
# Source text: These suppositories were rectally administered to rabbits (R, 2.5-3kg) and dogs (D, 12-13kg).
# [13] = CET-Na 500mg, enamine derivative 150mg (10%), base Witepsol H-15 850mg
# [14] = enamine derivative 120mg (10%), base SB-W 1005mg
# [15] = CET-Na 75mg, enamine derivative 60mg (5%), base Witepsol H-15 1065mg
# [16] = enamine derivative 60mg, base SB-W 1065mg
structure (smiles),measurement,setting,value
"CCOC(=O)C=C(C)N1CCC[C@H]1C(=O)[O-].[Na+] [Compound 13, N-(1-Methyl-2-ethoxycarbonylvinyl)-L-proline sodium salt]",half-life t 0.5,[1],3.1 min
same,AUC,[2],25 µg·min/mL
same,Peak blood concentration,[2],2.5 µg/mL
same,AUC,[3],733 µg·min/mL
same,Peak blood concentration,[3],6.5 µg/mL
same,AUC,[4],108 µg·min/mL
same,Peak blood concentration,[4],2.6 µg/mL
"CCOC(=O)C=C(C)NC(Cc1ccccc1)C(=O)[O-].[Na+] (racemic) [Compound 10, N-(1-Methyl-2-ethoxycarbonylvinyl)-DL-phenylalanine sodium salt]",half-life t 0.5,[1],15.7 min
same,"Concentration in blood, 15 min.",[5]; [13],15300 ng/mL
same,"Concentration in blood, 30 min.",[5]; [13],11730 ng/mL
same,"Concentration in blood, 60 min.",[5]; [13],6750 ng/mL
same,"Concentration in blood, 120 min.",[5]; [13],2200 ng/mL
"CCOC(=O)C=C(C)N[C@@H](C(=O)OC)c1ccccc1 [Compound 8, Methyl-N-(1-methyl-2-ethoxycarbonylvinyl)-D-phenylglycinate]",AUC,[2],49 µg·min/mL
same,Peak blood concentration,[2],3.8 µg/mL
"CCOC(=O)C=C(C)NCCCC[C@H](NC(C)=CC(=O)OCC)C(=O)[O-].[Na+] [Compound 17, N,N'-Bis(1-methyl-2-ethoxycarbonylvinyl)-L-lysine sodium salt]",half-life t 0.5,[1],22.9 min
same,AUC,[2],396 µg·min/mL
same,Peak blood concentration,[2],8.7 µg/mL
"CCOC(=O)C=C(C)N[C@@H](CCC(=O)[O-])C(=O)[O-].[Na+].[Na+] [Compound 16, N-(1-Methyl-2-ethoxycarbonylvinyl)-L-glutamic acid sodium salt]",half-life t 0.5,[1],16.3 min
same,"Concentration in blood, 15 min.",[6]; [14],690 ng/mL
same,"Concentration in blood, 30 min.",[6]; [14],480 ng/mL
same,"Concentration in blood, 60 min.",[6]; [14],520 ng/mL
same,"Concentration in blood, 120 min.",[6]; [14],290 ng/mL
"CCOC(=O)C=C(C)N[C@@H](C(=O)[O-])c1ccccc1.[Na+] [Compound 3, N-(1-Methyl-2-ethoxycarbonylvinyl)-D-phenylglycine sodium salt]",% Urinary recovery,[7],20%
same,half-life t 0.5,[1],26.1 min
same,AUC,[2],445 µg·min/mL
same,Peak blood concentration,[2],14.4 µg/mL
same,change in blood concentration of CET (in words),"[2]; rectal ointment CET-Na 20%, Compound 3 10%, dose 50 mg CET-Na/kg, FIG. 3",high CET level in the blood could by very quickly achieved
same,AUC,[4],270 µg·min/mL
same,Peak blood concentration,[4],4.8 µg/mL
same,reduction of blood glucose concentration from the pre-medication level,[8],about 50%
same,% Urinary recovery,"[9]; in Witepsol H-15, level of addition of enamine derivative 1%",11%
same,% Urinary recovery,"[10]; inulin, rectal, in Witepsol H-15, level of addition of enamine derivative 10%, Lunt method",8%
same,amount of inulin excreted in the urine,"[10]; rectal suppository, inulin 0.25 g + Compound 3 0.05 g in Witepsol H-15",18 % of the dose administered
same,area under the blood-concentration curve (AUC) of AB-PC relative to AB-PC alone,[11],1.52 times and 1.99 times and 1.73 times
"CC(N[C@@H](C(=O)[O-])c1ccccc1)=C1CCOC1=O.[Na+] [Compound 6, N-[1-(Tetrahydro-2-furanone-3-ylidene)ethyl]-D-phenylglycine sodium salt]",half-life t 0.5,[1],478 min
"CCOC(=O)C=C(C)NCCS(=O)(=O)[O-].[Na+] [Compound 14, N-(1-Methyl-2-ethoxycarbonylvinyl)taurine sodium salt]",half-life t 0.5,[1],24.0 min
same,AUC,[2],250 µg·min/mL
same,Peak blood concentration,[2],7.8 µg/mL
same,AUC,[4],239 µg·min/mL
same,Peak blood concentration,[4],5.9 µg/mL
"CCOC(=O)C(=CN[C@@H](C(=O)[O-])c1ccccc1)C(=O)OCC.[Na+] [Compound 5, N-[2,2-bis(ethoxycarbonyl)vinyl]-D-phenylglycine sodium salt]",half-life t 0.5,[1],Stable
same,AUC,[2],306 µg·min/mL
same,Peak blood concentration,[2],6.1 µg/mL
same,AUC,[4],149 µg·min/mL
same,Peak blood concentration,[4],4.7 µg/mL
"CCOC(=O)C=C(C)NCC(=O)NCC(=O)[O-].[Na+] [Compound 15, N-(1-Methyl-2-ethoxycarbonylvinyl)glycylglycine sodium salt]",half-life t 0.5,[1],31.8 min
same,AUC,[2],102 µg·min/mL
same,Peak blood concentration,[2],1.8 µg/mL
"CCOC(=O)C(C)OC(=O)C=C(C)N[C@@H](Cc1ccccc1)C(=O)[O-].[Na+] (stereo partly drawn) [Compound 34, N-[1-Methyl-2-(1-ethoxycarbonyl-ethoxycarbonyl)vinyl]-L-phenylalanine sodium salt]","Concentration in blood, 15 min.",[5]; [15],1250 ng/mL
same,"Concentration in blood, 30 min.",[5]; [15],830 ng/mL
same,"Concentration in blood, 60 min.",[5]; [15],610 ng/mL
same,"Concentration in blood, 120 min.",[5]; [15],390 ng/mL
same,Blood glucose response (6 I.U.),[12],45-55%
same,Time course: Lowest level,[12],45 to 60 min
same,Time course: Onset,[12],15 min
same,Time course: Return to pre-medication level,[12],150 min
"CCOC(=O)C=C(C)NCC(=O)[O-].[Na+] [Compound 1, N-(1-Methyl-2-ethoxycarbonylvinyl)glycine sodium salt]",half-life t 0.5,[1],3.7 min
same,"Concentration in blood, 15 min.",[6]; [16],1230 ng/mL
same,"Concentration in blood, 30 min.",[6]; [16],870 ng/mL
same,"Concentration in blood, 60 min.",[6]; [16],610 ng/mL
same,"Concentration in blood, 120 min.",[6]; [16],320 ng/mL
same,% Urinary recovery,"[9]; in Witepsol H-15, level of addition of enamine derivative 2%",12%
"CCCCOC(=O)C1=C(N[C@@H](C(=O)[O-])c2ccccc2)CCC1.[Na+] [Compound 7, N-(2-Butoxycarbonyl-1-cyclopenten-1-yl)-D-phenylglycine sodium salt]",half-life t 0.5,[1],Stable
"CCOC(=O)C=C(C)NCCCC(=O)[O-].[Na+] [Compound 2, N-(1-Methyl-2-ethoxycarbonylvinyl)-γ-aminobutyric acid sodium salt]",half-life t 0.5,[1],18.8 min
same,AUC,[2],315 µg·min/mL
same,Peak blood concentration,[2],6.3 µg/mL
same,AUC,[3],278 µg·min/mL
same,Peak blood concentration,[3],6.7 µg/mL
"CC(=O)C=C(C)N[C@@H](C(=O)[O-])c1ccccc1.[Na+] [Compound 4, N-(1-Methyl-2-acetylvinyl)-D-phenylglycine sodium salt]",half-life t 0.5,[1],Stable
same,AUC,[2],568 µg·min/mL
same,Peak blood concentration,[2],11.0 µg/mL
